Reference: publication PMC5684323 (2017)

Legend:
[1] = tested on: STRN3 "ESE" (RNA, single strand) AAGAAGGAACGAAAGGGGAAGAAAGGGG; assay: SPR (Biacore), immobilised RNA; settings: 150 mM NaCl, no Mg2+ (35 mM EDTA); 10 mM HEPES pH 7.4, 0.05% P20, 0.1% DMSO, 25 °C; 10 µM tested
[2] = tested on: ESE2 (SPR) (RNA, single strand) AAAAAGAAGGAAGG; assay: SPR (Biacore), immobilised RNA; settings: 150 mM NaCl, no Mg2+ (35 mM EDTA); 10 mM HEPES pH 7.4, 0.05% P20, 0.1% DMSO, 25 °C; 10 µM tested
[3] = tested on: ESE2 RNA (NMR) (RNA, single strand) AAAAAGAAGGAAGG; assay: 1H NMR titration; settings: 50 mM NaCl; 10 mM MES pH 5.5, 10% D2O, 310 K
[4] = tested on: Exon 7 (RNA, mRNA element) UACAGGGUUUUAGACAAAAUCAAAAAGAAGGAAGGUGCUCACAUUCCUUAAAUUAAGGAGUAAG; assay: SPR (Biacore), immobilised RNA; settings: 150 mM NaCl, no Mg2+ (35 mM EDTA); 10 mM HEPES pH 7.4, 0.05% P20, 0.1% DMSO, 25 °C; 10 µM tested

Compound	binding [1]	binding [2]	binding [3]	binding [4]
Cc1cn2cc(-c3cc(=O)n4cc(N5CCN(C(=O)CCN)CC5)ccc4n3)cc(F)c2n1	weak	weak	yes	
Cc1cn2cc(-c3cc(=O)n4cc(N5CCN(C)CC5)ccc4n3)cc(F)c2n1	yes	yes	yes	yes
